Assay results as given in PubChem BioAssay (NCI).
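Dose response: 5 concentrations. Exposure: 48 h. Format: 96-well plates. Endpoint: linear interpolation; highest concentration if not reached. Abbreviation: GI50, concentration required for 50% inhibition of growth. The concentration for full growth arrest is given as TGI.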

Legend:
Test in all cases: NCI anticancer screen, dose series, 48 h
786-0 renal = system: 786-0 renal
A549 NSCLC = system: A549 NSCLC
MOLT-4 leukemia = system: MOLT-4 leukemia
NCI-H460 lung = system: NCI-H460 lung
RPMI-8226 leukemia = system: RPMI-8226 leukemia
SNB-19 CNS = system: SNB-19 CNS
SNB-75 CNS = system: SNB-75 CNS
U251 CNS = system: U251 CNS
DU-145 prostate = system: DU-145 prostate
T-47D breast = system: T-47D breast

COC(=O)Cc1cc(OC)c(OC)cc1Br
TGI (786-0 renal): > 100 µM | TGI (A549 NSCLC): > 100 µM | TGI (MOLT-4 leukemia): > 100 µM | TGI (NCI-H460 lung): > 100 µM | TGI (RPMI-8226 leukemia): > 100 µM | TGI (SNB-19 CNS): > 100 µM | TGI (SNB-75 CNS): > 100 µM | TGI (U251 CNS): > 100 µM

O=C(O)CN(c1ccccc1)S(=O)(=O)c1ccc(NC(=O)c2ccccc2)cc1
TGI (786-0 renal): > 100 µM | TGI (A549 NSCLC): > 100 µM | TGI (MOLT-4 leukemia): > 100 µM | TGI (NCI-H460 lung): > 100 µM | TGI (RPMI-8226 leukemia): > 100 µM | TGI (SNB-19 CNS): > 100 µM | TGI (SNB-75 CNS): > 100 µM | TGI (U251 CNS): > 100 µM

CCCCCCCCCCCOC(=S)NC(C)C
TGI (786-0 renal): 39.3 µM | TGI (A549 NSCLC): 51.1 µM | TGI (MOLT-4 leukemia): 36.2 µM | TGI (NCI-H460 lung): 50.7 µM | TGI (RPMI-8226 leukemia): 33.2 µM | TGI (SNB-19 CNS): > 100 µM | TGI (SNB-75 CNS): 62.8 µM | TGI (U251 CNS): 30.2 µM

N=C(c1ccccc1)N(c1ccccc1)c1ccccc1
TGI (786-0 renal): > 100 µM | TGI (A549 NSCLC): > 100 µM | TGI (NCI-H460 lung): > 100 µM | TGI (SNB-19 CNS): > 100 µM | TGI (SNB-75 CNS): > 100 µM | TGI (U251 CNS): > 100 µM

Cc1ccc(C(=O)O/N=C2/CCCC/C2=C\c2ccccc2)cc1
TGI (786-0 renal): > 100 µM | TGI (A549 NSCLC): 39.3 µM | TGI (NCI-H460 lung): > 100 µM | TGI (RPMI-8226 leukemia): > 100 µM | TGI (SNB-19 CNS): > 100 µM | TGI (SNB-75 CNS): > 100 µM | TGI (U251 CNS): > 100 µM

O=C(CC1=Nc2nnc(-c3nnc4n3C(=O)C(CC(=O)c3cccnc3)=N4)n2C1=O)c1cccnc1
TGI (786-0 renal): > 100 µM | TGI (A549 NSCLC): > 100 µM | TGI (MOLT-4 leukemia): > 100 µM | TGI (NCI-H460 lung): > 100 µM | TGI (RPMI-8226 leukemia): > 100 µM | TGI (SNB-19 CNS): > 100 µM | TGI (SNB-75 CNS): > 100 µM | TGI (U251 CNS): > 100 µM

CCC1(C)NN=c2s/c(=C/c3ccc(OC)cc3)c(=O)n2N1 (stereo unspecified)
TGI (786-0 renal): > 100 µM | TGI (A549 NSCLC): > 100 µM | TGI (MOLT-4 leukemia): > 100 µM | TGI (NCI-H460 lung): > 100 µM | TGI (SNB-19 CNS): > 100 µM | TGI (SNB-75 CNS): > 100 µM | TGI (U251 CNS): > 100 µM

CCOc1ccccc1NC(=O)CCC(=O)OC
TGI (786-0 renal): > 100 µM | TGI (A549 NSCLC): > 100 µM | TGI (MOLT-4 leukemia): > 100 µM | TGI (NCI-H460 lung): > 100 µM | TGI (RPMI-8226 leukemia): > 71.3 µM | TGI (SNB-19 CNS): > 100 µM | TGI (SNB-75 CNS): > 100 µM | TGI (U251 CNS): > 71.1 µM

CN1C(=O)c2c(ccc3c2OCO3)C2C(O)Cc3cc4c(cc3C21)OCO4 (stereo unspecified)
TGI (786-0 renal): 37.3 µM | TGI (A549 NSCLC): > 100 µM | TGI (DU-145 prostate): 43.1 µM | TGI (MOLT-4 leukemia): 20 µM | TGI (NCI-H460 lung): > 100 µM | TGI (RPMI-8226 leukemia): > 100 µM | TGI (SNB-19 CNS): > 100 µM | TGI (SNB-75 CNS): 5.13 µM | TGI (U251 CNS): > 100 µM

N#Cc1cc(C#N)c(Cl)nc1N
TGI (786-0 renal): > 10 µM | TGI (A549 NSCLC): > 10 µM | TGI (MOLT-4 leukemia): > 10 µM | TGI (NCI-H460 lung): > 10 µM | TGI (RPMI-8226 leukemia): > 10 µM | TGI (SNB-19 CNS): > 10 µM | TGI (SNB-75 CNS): > 10 µM | TGI (T-47D breast): > 10 µM | TGI (U251 CNS): > 10 µM

NNC(=S)N/N=C(\CCCC(=O)NCCc1ccccc1)CC(=O)c1ccccc1
TGI (786-0 renal): > 100 µM | TGI (A549 NSCLC): > 100 µM | TGI (NCI-H460 lung): > 100 µM | TGI (SNB-19 CNS): > 100 µM | TGI (U251 CNS): > 100 µM

CC1CC2C3CC(F)C4=CC(=O)C=CC4(C)C3(F)C(O)CC2(C)C1(O)C(=O)COC(=O)C(C)(C)C (stereo unspecified)
TGI (786-0 renal): > 100 µM | TGI (A549 NSCLC): > 100 µM | TGI (MOLT-4 leukemia): > 100 µM | TGI (NCI-H460 lung): > 100 µM | TGI (RPMI-8226 leukemia): > 100 µM | TGI (SNB-19 CNS): > 100 µM | TGI (SNB-75 CNS): > 100 µM | TGI (U251 CNS): > 100 µM

CC1=C([Se]CC(OC(=O)[C@@H](CSSC(C)(C)C)NC(=O)OC(C)(C)C)C(=O)NC(C)(C)C)C(=O)c2ccccc2C1=O (stereo partly specified)
GI50 (786-0 renal): 1.65 µM | TGI (786-0 renal): 3.01 µM | GI50 (A549 NSCLC): 1.28 µM | TGI (A549 NSCLC): 2.66 µM | GI50 (DU-145 prostate): 1.81 µM | TGI (DU-145 prostate): 3.22 µM | GI50 (NCI-H460 lung): 0.364 µM | TGI (NCI-H460 lung): 1.32 µM | GI50 (SNB-19 CNS): 0.451 µM | TGI (SNB-19 CNS): 1.69 µM | GI50 (SNB-75 CNS): 1.3 µM | TGI (SNB-75 CNS): 2.59 µM | GI50 (T-47D breast): 1.44 µM | TGI (T-47D breast): 3.48 µM | GI50 (U251 CNS): 0.675 µM | TGI (U251 CNS): 1.94 µM

O=C(O)c1ccccc1Cc1ccco1
TGI (786-0 renal): > 100 µM | TGI (A549 NSCLC): > 100 µM | TGI (MOLT-4 leukemia): > 100 µM | TGI (NCI-H460 lung): > 100 µM | TGI (RPMI-8226 leukemia): > 100 µM | TGI (SNB-19 CNS): > 100 µM | TGI (SNB-75 CNS): > 100 µM | TGI (U251 CNS): > 100 µM

Cc1[nH]ncc1-c1cc2nc(C3CC4CCN3CC4)[nH]c(=O)c2s1 (stereo unspecified)
GI50 (786-0 renal): 2.92 µM | TGI (786-0 renal): > 100 µM | GI50 (A549 NSCLC): 2.67 µM | TGI (A549 NSCLC): > 100 µM | GI50 (DU-145 prostate): 3 µM | TGI (DU-145 prostate): > 100 µM | GI50 (MOLT-4 leukemia): 5.52 µM | TGI (MOLT-4 leukemia): > 100 µM | GI50 (NCI-H460 lung): 2.44 µM | TGI (NCI-H460 lung): > 100 µM | GI50 (RPMI-8226 leukemia): 18.2 µM | TGI (RPMI-8226 leukemia): > 100 µM | GI50 (SNB-19 CNS): 4.78 µM | TGI (SNB-19 CNS): > 100 µM | GI50 (SNB-75 CNS): 1.01 µM | TGI (SNB-75 CNS): 9.55 µM | GI50 (U251 CNS): 2.52 µM | TGI (U251 CNS): > 100 µM

O=C1OC(=O)c2c1c(-c1ccccc1)cn2-c1ccc(Cl)cc1
TGI (786-0 renal): > 100 µM | TGI (A549 NSCLC): > 100 µM | TGI (MOLT-4 leukemia): > 100 µM | TGI (NCI-H460 lung): > 100 µM | TGI (RPMI-8226 leukemia): > 100 µM | TGI (SNB-19 CNS): > 100 µM | TGI (SNB-75 CNS): > 100 µM | TGI (U251 CNS): > 100 µM

NS(=O)(=O)c1ccc(NC(=O)c2ccc(NC3=C(Cl)C(=O)N(Cc4ccccc4)C3=O)cc2)cc1
GI50 (786-0 renal): 3.38 µM | TGI (786-0 renal): 12.5 µM | GI50 (A549 NSCLC): 29.1 µM | TGI (A549 NSCLC): > 100 µM | GI50 (DU-145 prostate): 17 µM | TGI (DU-145 prostate): 30.6 µM | GI50 (NCI-H460 lung): 5.07 µM | TGI (NCI-H460 lung): > 100 µM | GI50 (SNB-19 CNS): > 100 µM | TGI (SNB-19 CNS): > 100 µM | GI50 (T-47D breast): 18.4 µM | TGI (T-47D breast): > 100 µM | GI50 (U251 CNS): 5.37 µM | TGI (U251 CNS): 24.7 µM

COc1ccc(/C(=N/NC(N)=O)C2(O)C(=O)Nc3ccc([N+](=O)[O-])cc32)cc1 (stereo unspecified)
TGI (786-0 renal): 30.2 µM | TGI (A549 NSCLC): > 100 µM | TGI (MOLT-4 leukemia): 50 µM | TGI (NCI-H460 lung): 39.4 µM | TGI (RPMI-8226 leukemia): 74.1 µM | TGI (SNB-19 CNS): > 10 µM | TGI (SNB-75 CNS): 69.8 µM | TGI (U251 CNS): > 10 µM

Nc1nc(CCC(=O)Nc2cccc(C(F)(F)F)c2)cc(-c2cccc3ccccc23)n1
TGI (786-0 renal): > 100 µM | TGI (A549 NSCLC): > 100 µM | TGI (MOLT-4 leukemia): > 100 µM | TGI (NCI-H460 lung): > 100 µM | TGI (SNB-19 CNS): > 100 µM | TGI (SNB-75 CNS): > 100 µM | TGI (U251 CNS): > 100 µM

N#C/C(=C\c1ccccc1O)C(N)=O
TGI (786-0 renal): > 100 µM | TGI (A549 NSCLC): > 100 µM | TGI (MOLT-4 leukemia): > 100 µM | TGI (NCI-H460 lung): > 100 µM | TGI (RPMI-8226 leukemia): > 100 µM | TGI (SNB-19 CNS): > 100 µM | TGI (SNB-75 CNS): 69.7 µM | TGI (U251 CNS): > 100 µM

CCOc1ccc(NC(=O)CC2SC(=Nc3ccc(Cl)cc3)NC2=O)cc1 (stereo unspecified)
TGI (786-0 renal): > 100 µM | TGI (A549 NSCLC): > 100 µM | TGI (MOLT-4 leukemia): > 100 µM | TGI (NCI-H460 lung): > 100 µM | TGI (RPMI-8226 leukemia): > 100 µM | TGI (SNB-19 CNS): > 100 µM | TGI (SNB-75 CNS): > 100 µM

CC[P+](C)(Cc1ccccc1)c1ccccc1 (stereo unspecified)
TGI (786-0 renal): > 100 µM | TGI (A549 NSCLC): > 100 µM | TGI (MOLT-4 leukemia): > 100 µM | TGI (NCI-H460 lung): > 100 µM | TGI (RPMI-8226 leukemia): > 100 µM | TGI (SNB-19 CNS): > 100 µM | TGI (SNB-75 CNS): > 100 µM | TGI (U251 CNS): > 100 µM

c1ccc(SC2(Sc3ccccc3)CCCC2)cc1
TGI (786-0 renal): > 100 µM | TGI (A549 NSCLC): > 100 µM | TGI (MOLT-4 leukemia): > 100 µM | TGI (NCI-H460 lung): > 100 µM | TGI (RPMI-8226 leukemia): > 100 µM | TGI (SNB-19 CNS): > 100 µM | TGI (SNB-75 CNS): > 100 µM | TGI (U251 CNS): > 100 µM
